Patent publication US20220226298A1, “GPR40 AGONISTS” (Kallyope, Inc., priority 2019, published 2022)

Key:
human GPR40 = biological target: T1, human GPR40 (Homo sapiens, UniProt O14842); experiment: Inositol phosphate accumulation assay (IP1 HTRF) in CHO-K1 cells expressing human GPR40; assay type: cell-based; details: 90 min stimulation
T1 construct: host or cells: CHO-K1
Procedure: CHO-KI cells expressing human GPR40 were purchased from DiscoverX (95-1005C2). HEK293 cells expressing mouse FFAR1 were prepared using a mouse FFAR1 carrying plasmid purchased from OriGene Technologies (MR222997). The cells were transfected using Lipofectamine 2000 using manufacturer instructions and stable cell line was established from a single cell using geneticine selection. Assay ready frozen (ARF) cells were prepared and used throughout the study.
The assay was performed in a 384-well plate format using IP1 assay kit from Cis-Bio. ARF cells expressing FFAR1 (mouse and human) were thawed, washed and then plated in the appropriate medium (F12 based medium for CHO hFFAR1 and DMEM based medium for HEK293 mFFAR1—both were supplemented with 10% FBS and penicillin/streptomycin). 20 μL of 3.5×10^5 cells/mL were plated on a Poly D-Lysine coated 384-well white plate. The cells were then incubated for 16 hr at 37° C./5% CO2. After 16 hr the medium was removed and 15 μL of stimulation buffer containing the test compounds was added to the cells. The plates were then incubated for 90 min at 37° C./5% CO2. 5 μL of detection buffer (prepared as described in the IP-one kit) was added to each well and the plates were incubated at RT for 1 hr.
[…] was measured using ClarioSTAR plate reader, calculating the ratio between emissions at 665 nm and 620 nm (HTRF ratio). HTRF ratio for positive (Max) and negative (Min) controls were used to normalize HTRF data and generate values for % activity. EC50 and Max activity values were determined using a standard 4-parameter fit.

[1] = In vivo plasma levels in mice; details: mouse, oral, 30 mg/kg; male C57BL/6J mice, dose 30 mpk, plasma concentration of test article (parent) 30 min post dose; read-out: 30 min Exposure: Parent
Procedure: Male C57BL/6J mice 10-12 weeks old were acclimated to dosing (e.g., oral gavage) 2-3 times prior to the study. On the day of the study, food was removed for 5-6 hours, then the mice were dosed with test article or vehicle (e.g., by oral gavage at a volume of 10 mL/kg). Animals were euthanized with carbon dioxide typically 30 min post dose. Blood was collected via cardiac puncture for measurement of plasma concentrations of test article (parent) or metabolite resulting from ester cleavage.

T1 sequence (O14842 whole entry): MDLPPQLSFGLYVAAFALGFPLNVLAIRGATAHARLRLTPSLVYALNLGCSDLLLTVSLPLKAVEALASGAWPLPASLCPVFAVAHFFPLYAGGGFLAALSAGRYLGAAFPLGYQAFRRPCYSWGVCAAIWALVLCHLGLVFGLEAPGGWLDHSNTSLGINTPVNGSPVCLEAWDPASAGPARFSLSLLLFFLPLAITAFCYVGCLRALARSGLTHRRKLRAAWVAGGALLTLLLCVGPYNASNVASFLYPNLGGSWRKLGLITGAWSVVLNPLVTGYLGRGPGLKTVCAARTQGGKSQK

| SMILES | EC50 (human GPR40) [nM] | concentration at 30 min [1] [nM] |
| --- | --- | --- |
| COc1cc(-c2ccc(C(=O)Oc3cccc([C@@H](CC(=O)O)C4CC4)c3)cc2CN(C(C)C)C(C)C)c(F)cn1 [Compound 15, (S)-3-cyclopropyl-3-(3-((3-((diisopropylamino)methyl)-4-(5-fluoro-2-methoxypyridin-4-yl)benzoyl)oxy)phenyl)propanoic acid] | ≤ 10 | < 2 |
| COc1cc(-c2ccc(C(=O)Oc3cccc([C@H](C4CC4)[C@@](C)(F)C(=O)O)c3)cc2CN(C(C)C)C(C)C)c(F)cn1 [Compound 36, (2R,3S)-3-cyclopropyl-3-(3-((3-((diisopropylamino)methyl)-4-(5-fluoro-2-methoxypyridin-4-yl)benzoyl)oxy)phenyl)-2-fluoro-2-methylpropanoic acid] | ≤ 10 | < 5 |
| CC(c1cc(C(F)(F)F)ccc1C(F)(F)F)N1CC(OC(=O)c2cccc([C@@H](CC(=O)O)C3CC3)c2)C1 (stereo partly shown) [Compound 47] | > 500 |  |
| CC(c1cc(C(F)(F)F)ccc1C(F)(F)F)N1CC[C@@H](OC(=O)c2cccc([C@@H](CC(=O)O)C3CC3)c2)C1 (stereo partly shown) [Compound 48] | > 500 |  |
| COc1cc(-c2ccc(C(=O)Oc3cccc([C@H](C4CC4)[C@H](C)C(=O)O)c3)c(C)c2)c(C(=O)NCCO)cn1 [Compound 51] | > 500 |  |
| COc1cc(-c2ccc(C(=O)Oc3cccc([C@H](C4CC4)[C@H](C)C(=O)O)c3)c(C)c2)c(C(=O)N(CCO)CCO)cn1 [Compound 52] | > 500 |  |
| COC(=O)c1cnc(OC)cc1-c1ccc(C(=O)Oc2cccc([C@H](C3CC3)[C@H](C)C(=O)O)c2)cc1CN(C(C)C)C(C)C [Compound 53] | ≤ 10 |  |
| COc1cc(-c2ccc(OC(=O)c3cccc([C@H](C4CC4)[C@H](C)C(=O)O)c3)cc2)c(F)cn1 [Compound 54] | ≤ 10 |  |
| COc1cc(-c2ccc(OC(=O)c3cccc([C@H](C4CC4)[C@H](C)C(=O)O)c3)c(CN(C(C)C)C(C)C)c2)c(F)cn1 [Compound 55] | ≤ 10 |  |
| COc1cc(-c2ccc(OC(=O)c3cccc([C@H](C4CC4)[C@H](C)C(=O)O)c3)c(C)c2)c(F)cn1 [Compound 56] | ≤ 10 |  |
| CCN(Cc1cc(OC(=O)c2cccc([C@H](C3CC3)[C@H](C)C(=O)O)c2)ccc1-c1cc(OC)ncc1F)C(C)C [Compound 57] | ≤ 10 |  |
| COc1cc(-c2ccc(OC(=O)c3cccc([C@H](C4CC4)[C@H](C)C(=O)O)c3)cc2CN(C(C)C)C(C)C)c(F)cn1 [Compound 58] | ≤ 10 |  |
| COc1cc(-c2cc(F)c(OC(=O)c3cccc([C@H](C4CC4)[C@H](C)C(=O)O)c3)cc2CN(C(C)C)C(C)C)ccn1 [Compound 59, (2S,3R)-3-cyclopropyl-3-(3-((5-((diisopropylamino)methyl)-2-fluoro-4-(2-methoxypyridin-4-yl)phenoxy)carbonyl)phenyl)-2-methylpropanoic acid] | ≤ 10 |  |
| COc1cc(-c2cc(F)c(OC(=O)c3cccc([C@H](C4CC4)[C@H](C)C(=O)O)c3)cc2CN(C(C)C)C(C)C)c(F)cn1 [Compound 60] | ≤ 10 |  |
| COc1ccc(F)c([C@H]2CC[C@H](C(=O)Oc3cccc([C@H](C4CC4)[C@@](C)(F)C(=O)O)c3)CC2)c1 [Compound 62] | ≤ 10 |  |
| Cc1cc(-c2cc(O)ncc2F)c(CN(C(C)C)C(C)C)cc1C(=O)Oc1cccc([C@H](C2CC2)[C@@](C)(F)C(=O)O)c1 [Compound 64, (2R,3S)-3-cyclopropyl-3-(3-((5-((diisopropylamino)methyl)-4-(5-fluoro-2-hydroxypyridin-4-yl)-2-methylbenzoyl)oxy)phenyl)-2-fluoro-2-methylpropanoic acid] | > 500 |  |
| COc1cc(-c2ccc(C(=O)Oc3cccc(C(CP(C)(=O)O)C4CC4)c3)cc2CN(C(C)C)C(C)C)c(F)cn1 (stereo not shown) [Compound 66, (2-cyclopropyl-2-(3-((3-((diisopropylamino)methyl)-4-(5-fluoro-2-methoxypyridin-4-yl)benzoyl)oxy)phenyl)ethyl)(methyl)phosphinic acid] | > 500 |  |
| COc1cc(-c2ccc(C(=O)Oc3cccc([C@H](C4CC4)[C@H](C)C(=O)O)c3F)cc2CN(C(C)C)C(C)C)c(F)cn1 [Compound 69, (2S,3R)-3-cyclopropyl-3-[3-[3-[(diisopropylamino)methyl]-4-(5-fluoro-2-methoxy-4-pyridyl)benzoyl]oxy-2-fluoro-phenyl]-2-methyl-propanoic acid] | ≤ 10 |  |
| COc1cc(-c2cc(C)c(C(=O)Oc3cccc(C(CP(C)(=O)O)C4CC4)c3)cc2CN(C(C)C)C(C)C)c(F)cn1 (stereo not shown) [Compound 70, (2-cyclopropyl-2-(3-((5-((diisopropylamino)methyl)-4-(5-fluoro-2-methoxypyridin-4-yl)-2-methylbenzoyl)oxy)phenyl)ethyl)(methyl)phosphinic acid] | > 500 |  |

The next lines start with the values.

| EC50 (human GPR40) [nM] | concentration at 30 min [1] [nM] | SMILES |
| --- | --- | --- |
| ≤ 10 | < 2 | COc1cc(-c2ccc(C(=O)Oc3cccc([C@H](C4CC4)[C@H](C)C(=O)O)c3)cc2CN(C(C)C)C(C)C)c(F)cn1 [Compound 26, (2S,3R)-3-cyclopropyl-3-(3-((3-((diisopropylamino)methyl)-4-(5-fluoro-2-methoxypyridin-4-yl)benzoyl)oxy)phenyl)-2-methylpropanoic acid] |
| > 500 |  | O=C(O)C[C@H](c1cccc(C(=O)O)c1)C1CC1 [Compound 42] |
| 100 to 500 |  | O=C(O)C[C@H](c1cccc(C(=O)Oc2ccc(-c3cc(O)ccc3F)cc2)c1)C1CC1 [Compound 43] |
| 100 to 500 |  | COc1cc(-c2ccc(OC(=O)c3cccc([C@@H](CC(=O)O)C4CC4)c3)cc2)c(F)cn1 [Compound 44] |
| 100 to 500 |  | COc1ccc(F)c(-c2ccc(OC(=O)c3cccc([C@@H](CC(=O)O)C4CC4)c3)c(C)c2)c1 [Compound 45, (S)-3-cyclopropyl-3-(3-(((2′-fluoro-5′-methoxy-3-methyl-[1,1′-biphenyl]-4-yl)oxy)carbonyl)phenyl)propanoic acid] |
| > 500 |  | CC(c1cc(C(F)(F)F)ccc1C(F)(F)F)N1CCC(OC(=O)c2cccc([C@@H](CC(=O)O)C3CC3)c2)CC1 (stereo partly drawn) [Compound 46, (3S)-3-(3-(((1-(1-(2,5-bis(trifluoromethyl)phenyl)ethyl)piperidin-4-yl)oxy)carbonyl)phenyl)-3-cyclopropylpropanoic acid] |
| > 500 |  | CC(c1cc(C(F)(F)F)ccc1C(F)(F)F)N1CC[C@H](OC(=O)c2cccc([C@@H](CC(=O)O)C3CC3)c2)C1 (stereo partly shown) [Compound 49] |
| ≤ 10 |  | COc1cc(-c2cc(C)c(OC(=O)c3cccc([C@H](C4CC4)[C@H](C)C(=O)O)c3)cc2CN(C(C)C)C(C)C)c(F)cn1 [Compound 61] |
| ≤ 10 |  | COc1cc(-c2ccc(OC(=O)c3cccc([C@H](C4CC4)[C@@](C)(F)C(=O)O)c3)cc2CN(C(C)C)C(C)C)c(F)cn1 [Compound 63, (2R, 3S)-3-cyclopropyl-3-(3-((3-((diisopropylamino)methyl)-4-(5-fluoro-2-methoxypyridin-4-yl)phenoxy)carbonyl)phenyl)-2-fluoro-2-methylpropanoic acid] |
| ≤ 10 |  | COc1cc(-c2ccc(C(=O)Oc3cccc([C@H](C4CC4)[C@H](C)C(=O)OCc4oc(=O)oc4C)c3)cc2CN(C(C)C)C(C)C)c(F)cn1 [Compound 65, 3-((1R, 2S)-1-cyclopropyl-2-methyl-3-((5-methyl-2-oxo-1,3-dioxol-4-yl)methoxy)-3-oxopropyl)phenyl 3-((diisopropylamino)methyl)-4-(5-fluoro-2-methoxypyridin-4-yl)benzoate] |
| > 500 |  | COc1cc(-c2ccc(C(=O)Oc3cccc(C(CS(=O)(=O)O)C4CC4)c3)cc2CN(C(C)C)C(C)C)c(F)cn1 (stereo not shown) [Compound 67, 2-cyclopropyl-2-(3-((3-((diisopropylamino)methyl)-4-(5-fluoro-2-methoxypyridin-4-yl)benzoyl)oxy)phenyl)ethanesulfonic acid] |
| 100 to 500 |  | COc1cc(-c2ccc(C(=O)Oc3cccc([C@H](C4CC4)[C@H](C)C(=O)OCCP(=O)(O)O)c3)cc2CN(C(C)C)C(C)C)c(F)cn1 [Compound 68, (2-(((2S, 3R)-3-cyclopropyl-3-(3-((3-((diisopropylamino)methyl)-4-(5-fluoro-2-methoxypyridin-4-yl)benzoyl)oxy)phenyl)-2-methylpropanoyl)oxy)ethyl)phosphonic acid] |
